# Biological target: T1, HDAC6 enzyme (Homo sapiens, UniProt Q9UBN7)
# T1 construct: prepared by transducing full length HDAC6 gene into Sf-9 insect cells; GST; purchased SignalChem; host or cells: Sf-9 insect cells
# T1 sequence (Q9UBN7 1-1215): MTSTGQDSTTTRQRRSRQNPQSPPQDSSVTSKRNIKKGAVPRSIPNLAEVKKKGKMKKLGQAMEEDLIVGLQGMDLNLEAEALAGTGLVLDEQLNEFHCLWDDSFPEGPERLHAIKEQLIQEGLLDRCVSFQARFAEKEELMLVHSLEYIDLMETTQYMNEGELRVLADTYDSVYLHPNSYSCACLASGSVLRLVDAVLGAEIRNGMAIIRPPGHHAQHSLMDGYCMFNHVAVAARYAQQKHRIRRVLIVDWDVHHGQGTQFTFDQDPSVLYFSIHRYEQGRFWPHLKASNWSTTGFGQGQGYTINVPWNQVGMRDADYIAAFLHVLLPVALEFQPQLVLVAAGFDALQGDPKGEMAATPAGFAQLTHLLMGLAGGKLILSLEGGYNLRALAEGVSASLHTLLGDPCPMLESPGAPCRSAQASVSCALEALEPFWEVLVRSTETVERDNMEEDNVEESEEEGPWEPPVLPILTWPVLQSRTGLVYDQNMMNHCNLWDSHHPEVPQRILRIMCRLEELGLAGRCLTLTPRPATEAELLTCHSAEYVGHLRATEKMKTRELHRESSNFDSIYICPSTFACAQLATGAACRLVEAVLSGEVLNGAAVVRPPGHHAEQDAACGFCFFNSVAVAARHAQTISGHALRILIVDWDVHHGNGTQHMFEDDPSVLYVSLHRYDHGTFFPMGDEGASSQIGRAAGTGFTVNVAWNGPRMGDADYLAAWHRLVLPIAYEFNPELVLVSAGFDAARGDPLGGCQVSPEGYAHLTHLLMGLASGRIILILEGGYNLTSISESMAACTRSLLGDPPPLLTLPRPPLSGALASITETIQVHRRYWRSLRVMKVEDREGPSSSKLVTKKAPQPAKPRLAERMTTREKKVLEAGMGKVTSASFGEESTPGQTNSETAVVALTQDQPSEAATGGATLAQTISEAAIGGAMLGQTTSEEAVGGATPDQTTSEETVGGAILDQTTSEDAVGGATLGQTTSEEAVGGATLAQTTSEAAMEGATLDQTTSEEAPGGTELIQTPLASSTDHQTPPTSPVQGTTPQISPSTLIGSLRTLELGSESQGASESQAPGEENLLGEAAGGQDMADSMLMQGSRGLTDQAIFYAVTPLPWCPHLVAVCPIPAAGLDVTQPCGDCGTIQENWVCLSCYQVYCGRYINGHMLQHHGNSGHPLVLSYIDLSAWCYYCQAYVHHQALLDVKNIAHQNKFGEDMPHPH
# Assay: HDAC6 enzyme inhibitory assay (HDAC-Glo I/II Assay kit, luminescence)
# Type: biochemical
# Conditions: 10 μM test compound; wells without enzyme = 100% inhibition; 10 µM
# Method in brief: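 Full-length human HDAC6, GST-purified from Sf-9 cells, was preincubated with compound for 60 min at room temperature in Tris-HCl pH 7.5 buffer with glutathione and Tween-20. Substrate-developer was then added, and luminescence was read after 20 min at room temperature. Inhibition was expressed relative to no-enzyme wells, taken as 100% inhibition.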
row,HDAC6 inhibitory rate (%) (10 μM),SMILES
1,62,"CN1C(=O)c2cc(-c3nnc(C(F)F)o3)ccc2OC1(C)c1ccc(C#N)cc1 (single isomer, unassigned; isomer 1) [Example 36b, 4-{6-[5-(difluoromethyl)-1,3,4-oxadiazol-2-yl]-2,3-dimethyl-4-oxo-3,4-dihydro-2H-1,3-benzoxazin-2-yl}benzonitrile (optical isomer 1)]"

# Same assay, conditions: 10 μM test compound; wells without enzyme = 100% inhibition; read-out: HDAC6 inhibitory rate (%) (10 μM)
row,inhibition at 10 µM [%],SMILES
1,100,"CC(NN1Cc2ccc(-c3nnc(C(F)F)o3)cc2C1=O)c1ccc(F)cc1 (centres unmarked) [Example 22c, 6-[5-(difluoromethyl)-1,3,4-oxadiazol-2-yl]-2-{[1-(4-fluorophenyl)ethyl]amino}-2,3-dihydro-1H-isoindol-1-one]"
2,100,"CC(C)(C)OC(=O)N(Cc1ccccc1)N1Cc2ccc(-c3nnc(C(F)F)o3)cc2C1=O [Example 4c, tert-butyl benzyl {6-[5-(difluoromethyl)-1,3,4-oxadiazol-2-yl]-1-oxo-1,3-dihydro-2H-isoindol-2-yl}carbamate]"
3,86,"O=C(Cn1ccnc1-c1cc(F)cc(-c2nnc(C(F)F)o2)c1)N1CCCC1 [Example 33a, 2-(2-{3-[5-(difluoromethyl)-1,3,4-oxadiazol-2-yl]-5-fluorophenyl}-1H-imidazol-1-yl)-1-(pyrrolidin-1-yl)ethan-1-one]"
4,100,"CN1C(=O)c2cc(-c3nnc(C(F)F)o3)ccc2OC1(C)c1ccc(F)cc1 (centres unmarked) [Example 7b, 6-[5-(difluoromethyl)-1,3,4-oxadiazol-2-yl]-2-(4-fluorophenyl)-2,3-dimethyl-2,3-dihydro-4H-1,3-benzoxazin-4-one]"
5,100,"Fc1cc(-c2nnc(C(F)F)o2)cc(-c2nccn2Cc2ccc(F)c(F)c2)c1 [Example 45a, 2-(difluoromethyl)-5-(3-{1-[(3,4-difluorophenyl)methyl]-1H-imidazol-2-yl}-5-fluorophenyl)-1,3,4-oxadiazole]"
6,92,"O=C1c2cc(-c3nnc(C(F)F)o3)ccc2CN1NC1CCOCC1 [Example 34c, 6-[5-(difluoromethyl)-1,3,4-oxadiazol-2-yl]-2-[(oxan-4-yl)amino]-2,3-dihydro-1H-isoindol-1-one]"
7,97,"O=C1c2cc(-c3nnc(C(F)F)o3)ccc2CN1NCc1cnn(C2CC2)c1 [Example 9c, 2-{[(1-cyclopropyl-1H-pyrazol-4-yl)methyl]amino}-6-[5-(difluoromethyl)-1,3,4-oxadiazol-2-yl]-2,3-dihydro-1H-isoindol-1-one]"
8,99,"O=C1COC[C@@H](Cc2ccccc2)N1c1cc(-c2nnc(C(F)F)o2)ccn1 [Example 19a, (5R)-5-benzyl-4-{4-[5-(difluoromethyl)-1,3,4-oxadiazol-2-yl]pyridin-2-yl}morpholin-3-one]"
9,95,"O=C1c2cc(-c3nnc(C(F)F)o3)ccc2CN1NC1CCCCC1 [Example 29c, 2-(cyclohexylamino)-6-[5-(difluoromethyl)-1,3,4-oxadiazol-2-yl]-2,3-dihydro-1H-isoindol-1-one]"
10,98,CC1(COc2cccnc2-c2cc(F)cc(-c3nnc(C(F)F)o3)c2)COC1 [Example 18a]
11,99,N#Cc1ccccc1Cn1ccnc1-c1cc(-c2nnc(C(F)F)o2)ccn1 [Example 79a]
12,100,"Fc1ccc(Cc2ccnn2-c2cc(-c3nnc(C(F)F)o3)ccn2)cc1 [Example 73a, 4-[5-(difluoromethyl)-1,3,4-oxadiazol-2-yl]-2-[5-[(4-fluorophenyl)methyl]-1H-pyrazol-1-yl}pyridine]"
13,97,"O=C1c2cc(-c3nnc(C(F)F)o3)ccc2CN1N(Cc1cnn(C2CC2)c1)Cc1cnn(C2CC2)c1 [Example 10c, 2-{bis[(1-cyclopropyl-1H-pyrazol-4-yl)methyl]amino}-6-[5-(difluoromethyl)-1,3,4-oxadiazol-2-yl]-2,3-dihydro-1H-isoindol-1-one]"
14,98,"Fc1cc(-c2nnc(C(F)F)o2)cc(-c2nccn2Cc2cnccn2)c1 [Example 43a, 2-[(2-{3-[5-(difluoromethyl)-1,3,4-oxadiazol-2-yl]-5-fluorophenyl}-1H-imidazol-1-yl)methyl]pyrazine]"
15,98,"Fc1cc(-c2nnc(C(F)F)o2)cc(-c2ncccc2OC2CCOCC2)c1 [Example 8a, 2-{3-[5-(difluoromethyl)-1,3,4-oxadiazol-2-yl]-5-fluorophenyl}-3-[(oxan-4-yl)oxy]pyridine]"
16,98,"CN1C(=O)c2cc(-c3nnc(C(F)F)o3)ccc2OC1(C)c1ccccc1Cl (centres unmarked) [Example 16b, 2-(2-chlorophenyl)-6-[5-(difluoromethyl)-1,3,4-oxadiazol-2-yl]-2,3-dimethyl-2,3-dihydro-4H-1,3-benzoxazin-4-one]"
17,99,"Fc1cc(-c2nnc(C(F)F)o2)cc(-c2ncccc2OCC2CCOC2)c1 (centres unmarked) [Example 12a, 2-{3-[5-(difluoromethyl)-1,3,4-oxadiazol-2-yl]-5-fluorophenyl}-3-[(oxolan-3-yl)methoxy]pyridine]"
18,100,"Cc1ccccc1Cn1ccnc1-c1cc(-c2nnc(C(F)F)o2)ccn1 [Example 86a, 4-[5-(difluoromethyl)-1,3,4-oxadiazol-2-yl]-2-{1-[(2-methylphenyl)methyl]-1H-imidazol-2-yl}pyridine]"
19,98,"CN(Cc1cc(Cl)ccc1O)N1Cc2ccc(-c3nnc(C(F)F)o3)cc2C1=O [Example 42c, 2-{[(5-chloro-2-hydroxyphenyl)methyl](methyl)amino}-6-[5-(difluoromethyl)-1,3,4-oxadiazol-2-yl]-2,3-dihydro-1H-isoindol-1-one]"
20,97,"CN(C(=O)OC(C)(C)C)N1Cc2ccc(-c3nnc(C(F)F)o3)cc2C1=O [Example 38c, tert-butyl {6-[5-(difluoromethyl)-1,3,4-oxadiazol-2-yl]-1-oxo-1,3-dihydro-2H-isoindol-2-yl}methylcarbamate]"
21,100,"CN1C(=O)c2cc(-c3nnc(C(F)F)o3)ccc2CN1c1ccc(F)cc1 [Example 10b, 7-[5-(difluoromethyl)-1,3,4-oxadiazol-2-yl]-3-(4-fluorophenyl)-2-methyl-3,4-dihydrophthalazin-1(2H)-one]"
22,97,"CN(C)c1ccc(CN(C)N2Cc3ccc(-c4nnc(C(F)F)o4)cc3C2=O)cc1 [Example 54c, 6-[5-(difluoromethyl)-1,3,4-oxadiazol-2-yl]-2-[{[4-(dimethylamino)phenyl]methyl} (methyl)amino]-2,3-dihydro-1H-isoindol-1-one]"
23,98,"Cc1cc(Cn2ccnc2-c2cc(F)cc(-c3nnc(C(F)F)o3)c2)no1 [Example 61a, 2-(difluoromethyl)-5-(3-fluoro-5-{1-[(5-methyl-1,2-oxazol-3-yl)methyl]-1H-imidazol-2-yl}phenyl)-1,3,4-oxadiazole]"
24,98,"CNC(=O)c1ccc(Cn2ccnc2-c2cc(F)cc(-c3nnc(C(F)F)o3)c2)cc1F [Example 34a, 4-[(2-{3-[5-(difluoromethyl)-1,3,4-oxadiazol-2-yl]-5-fluorophenyl}-1H-imidazol-1-yl)methyl]-2-fluoro-N-methylbenzamide]"
25,99,"O=C(OCc1ccccn1)N(Cc1ccc(F)cc1)N1Cc2ccc(-c3nnc(C(F)F)o3)cc2C1=O [Example 25c, (pyridin-2-yl)methyl {6-[5-(difluoromethyl)-1,3,4-oxadiazol-2-yl]-1-oxo-1,3-dihydro-2H-isoindol-2-yl}[(4-fluorophenyl)methyl]carbamate]"
26,88,"O=C1c2cc(-c3nnc(C(F)F)o3)ccc2CN1Nc1ccc(F)cn1 [Example 39c, 6-[5-(difluoromethyl)-1,3,4-oxadiazol-2-yl]-2-[(5-fluoropyridin-2-yl)amino]-2,3-dihydro-1H-isoindol-1-one]"
27,103,Cc1ccc(Cn2ccnc2-c2cc(-c3nnc(C(F)F)o3)ccn2)cc1 [Example 78a]
28,98,"O=C1c2cc(-c3nnc(C(F)F)o3)ccc2CN1Nc1ccc(F)c(F)c1 [Example 36c, 2-(3,4-difluoroanilino)-6-[5-(difluoromethyl)-1,3,4-oxadiazol-2-yl]-2,3-dihydro-1H-isoindol-1-one]"
